From ChEMBL document CHEMBL1268939, “Synthesis and evaluation of bivalent, peptidomimetic antagonists of the αvβ3 integrins” (Bioorg Med Chem Lett, 2010)

Molecular target: Integrin alpha-V/beta-3 (Homo sapiens, UniProt P05106+P06756)
Assay: Inhibition of biotinylated vitronectin binding to human alphaVbeta3 integrin after 3 hrs by ELISA
Type: protein-complex assay

Sequence of Integrin alpha-V/beta-3 (P05106 27-788 limits assumed): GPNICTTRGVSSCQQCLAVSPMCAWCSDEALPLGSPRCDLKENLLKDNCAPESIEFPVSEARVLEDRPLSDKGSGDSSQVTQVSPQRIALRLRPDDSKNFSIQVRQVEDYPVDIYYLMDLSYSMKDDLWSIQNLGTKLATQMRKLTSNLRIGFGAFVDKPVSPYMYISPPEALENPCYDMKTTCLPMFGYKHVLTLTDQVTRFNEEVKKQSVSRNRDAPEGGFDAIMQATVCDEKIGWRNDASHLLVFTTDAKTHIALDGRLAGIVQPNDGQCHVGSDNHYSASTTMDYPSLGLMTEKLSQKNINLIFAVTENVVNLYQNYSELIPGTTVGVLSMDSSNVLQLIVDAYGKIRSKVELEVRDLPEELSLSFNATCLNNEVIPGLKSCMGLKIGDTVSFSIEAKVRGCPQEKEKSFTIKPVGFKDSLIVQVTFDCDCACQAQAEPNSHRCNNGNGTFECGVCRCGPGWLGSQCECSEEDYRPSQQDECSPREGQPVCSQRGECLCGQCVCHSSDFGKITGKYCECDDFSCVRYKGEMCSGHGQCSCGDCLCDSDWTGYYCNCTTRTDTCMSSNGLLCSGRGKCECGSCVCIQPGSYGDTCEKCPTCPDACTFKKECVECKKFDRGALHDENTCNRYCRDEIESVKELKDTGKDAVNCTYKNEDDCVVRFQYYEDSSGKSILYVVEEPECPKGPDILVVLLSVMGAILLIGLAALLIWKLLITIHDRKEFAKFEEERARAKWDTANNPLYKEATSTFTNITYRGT
Sequence of Integrin alpha-V/beta-3 (P06756 31-889 limits assumed): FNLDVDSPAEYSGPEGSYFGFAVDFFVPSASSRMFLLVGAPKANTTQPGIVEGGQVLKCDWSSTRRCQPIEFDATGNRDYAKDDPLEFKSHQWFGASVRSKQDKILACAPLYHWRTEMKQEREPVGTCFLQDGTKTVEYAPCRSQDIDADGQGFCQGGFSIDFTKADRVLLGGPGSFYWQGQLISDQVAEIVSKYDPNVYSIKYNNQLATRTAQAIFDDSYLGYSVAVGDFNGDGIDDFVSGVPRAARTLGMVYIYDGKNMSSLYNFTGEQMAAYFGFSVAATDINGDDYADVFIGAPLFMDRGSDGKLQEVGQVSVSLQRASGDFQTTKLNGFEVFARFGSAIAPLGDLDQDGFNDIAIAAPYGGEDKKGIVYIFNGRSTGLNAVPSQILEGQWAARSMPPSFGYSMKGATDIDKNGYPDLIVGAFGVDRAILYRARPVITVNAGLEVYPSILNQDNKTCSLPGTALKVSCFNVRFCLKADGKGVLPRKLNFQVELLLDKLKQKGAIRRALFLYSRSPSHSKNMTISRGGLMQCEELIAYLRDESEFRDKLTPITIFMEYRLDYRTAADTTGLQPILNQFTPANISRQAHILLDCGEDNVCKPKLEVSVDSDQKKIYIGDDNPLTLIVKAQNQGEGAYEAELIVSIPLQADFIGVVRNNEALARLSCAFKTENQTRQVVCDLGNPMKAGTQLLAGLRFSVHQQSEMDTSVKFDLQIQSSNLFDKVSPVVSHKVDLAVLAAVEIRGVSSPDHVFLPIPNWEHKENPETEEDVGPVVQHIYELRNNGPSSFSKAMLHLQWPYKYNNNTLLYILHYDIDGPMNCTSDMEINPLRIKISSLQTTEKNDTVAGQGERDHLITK
Sequence of Integrin alpha-V/beta-3 (P06756 891-1048 limits assumed): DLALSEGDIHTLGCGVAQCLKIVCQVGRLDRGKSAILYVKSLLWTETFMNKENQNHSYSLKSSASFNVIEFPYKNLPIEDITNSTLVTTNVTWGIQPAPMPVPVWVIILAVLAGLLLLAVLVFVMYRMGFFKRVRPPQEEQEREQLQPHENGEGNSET

| Structure (SMILES) | IC50 [nM] |
| --- | --- |
| CC(C)(CNC(=O)OCCOCCOCCOCCOCCOCCOCCOCCOC(=O)NCC(C)(C)COC(=O)NCCS(=O)(=O)N[C@@H](CNC(=O)c1ccc(OCCN=C2NCCCN2)cc1)C(=O)O)COC(=O)NCCS(=O)(=O)N[C@@H](CNC(=O)c1ccc(OCCN=C2NCCCN2)cc1)C(=O)O | 0.32 |
| NCCS(=O)(=O)N[C@@H](CNC(=O)c1ccc(OCCNC2=NCCCN2)cc1)C(=O)O | 22.3 |
| CC(C)(CN)COC(=O)NCCS(=O)(=O)N[C@@H](CNC(=O)c1ccc(OCCNC2=NCCCN2)cc1)C(=O)O | 2.07 |
